Laboratory results reported in US7807845B2, “Resistance-repellent retroviral protease inhibitors” (priority 2004, dated 2010).

How the values were obtained:
[1] = system: HIVmutant9 (10 mutations); experiment: Antiviral assay in MT-4 cells (MTT), mutant 9 virus; assay type: cell-based, HIV; conditions: Human immunodeficiency virus 1, MT4, 120 h, read-out: IC50 Mutant 9
Description: (§1) MT-4 cells were obtained from the AIDS Research and Reference Reagent Program (ARRRP, Division of AIDS, NIAID, NIH: MT-4 from Dr. D. Richman). Cells were propagated in RPMI 1640 supplemented with 10% fetal bovine serum, 50U of penicillin and 50 μg of streptomycin per ml (Invitrogen, Carlsbad Calif.). The following HIV viruses were used for testing of antiviral potency of compounds: WT=HIVHXB2; recombinant HIVHXB2 virus from drug resistant patient isolates; HIVmutant10 (16 mutations); HIVmutant8 (14 mutations); HIVmutant9 (10 mutations).
(§2) The potency of test compound was determined as previously described (ref 1-3) with minor modifications. MT-4 cells (1.5×10^4/ml) were exposed to 200 50 % tissue culture infective doses (TCID50) of viruses in the presence of various concentrations of test compound in 96 well microtiter plates and incubated at 37° C. for 5 days. 3-(4,5-dimethylthiazol-2-yl)-2,5-diphenytetrazolium bromide (MTT) solution was added to a final concentration of 0.75 mg/ml, and plates were incubated 1 hour. After incubation cells were dissolved in isopropanol/Triton-X 100/HCl (1000:50:25) solution. Absorbance was monitored in a microplate reader (Spectramax, Molecular Devices) at 540 nm and 690 nm. Cytotoxicity of compounds was tested in a similar assay in the absence of virus.

[2] = target: mutant HIV PR (Mutant 9) (Human immunodeficiency virus type 1 group M subtype B, UniProt P04585); experiment: HIV PR inhibition assay, Mutant 9; assay type: biochemical; conditions: read-out: Ki Mutant 9; recombinant mutant HIV PR, fluorogenic substrate, pH 6.5
Description: (§3) Expression and purification of WT and mutant HIV PR. Recombinant wild type and mutant HIV PRs were expressed using pET21 vector (Novagen) in E. coli cells, and purified and refolded as described previously (Gulnik et al, 1995). The cells were resuspended in 50 mM tris-HCl buffer, pH 8.0, 25 mM NaCl, 0.2% β-mercaptoethanol (buffer A), sonicated and centrifuged. Inclusion bodies were washed first with buffer A, then with buffer A containing respectively 0.1% Triton X-100, 1 M NaCl, 1 M urea, and finally with buffer A alone. Purified inclusion bodies were solubilized by addition of buffer A containing 8 M urea at room temperature. The solution was clarified by centrifugation and loaded onto 2.6×9.5 cm Q-Sepharose column. Flow-through fractions were collected and dialyzed against 3 changes of refolding buffer, which consists of 25 mM Na-phosphate, pH 7.0, 25 mM NaCl, 0.2% β-mercaptoethanol and 10% glycerol, aliquoted and stored at −80° C.
(§4) Inhibition constants were determined using the fluorogenic substrate ArgGlu(EDANS)[…]DABCYL)Arg (Amichem, USA). HIV Protease was preincubated for 0.5-1 min at ambient temperature on a 96 well plate with different concentrations of inhibitor in 0.05 M sodium phosphate buffer, pH 6.5, containing 20 mM NaCl, 2 mM DTT and 0.01% Tween-20. The reaction was initiated by the addition of substrate. Final enzyme concentration was 2-5 nM for WT and 2-30 nM for mutants. Substrate concentration was 20 uM and DMSO concentration 2%. The increase in fluorescence intensity at the emission maximum of 520 nm (excitation wavelength 340 nm, cut-off filter 495 nm) was monitored as a function of time using a Spectramax Gemini fluorescence plate reader (Molecular Devices, CA USA). The initial rate of hydrolysis was calculated by first-degree polynomial fit using SoftMAX operating software. Data were fitted to the Michaelis-Menten equation for competitive inhibitors. For tight-binding inhibitors the data were fitted by nonlinear regression analysis to the equation V=V0/2Et({[Ki(1+S/Km)+It−Et]^2+4Ki(1+S/Km)Et}^1/2−[Ki(1+S/Km)+It−Et]) (Williams and Morrison, 1979) with the program GraFit, version 5 (Erithacus Software Limited, UK), where V and V0 are initial velocities with and without inhibitor, Km is the Michaelis-Menten constant and S, Et and It are the concentrations of substrate, active enzyme and inhibitor respectively.

[3] = target: T1, wild type HIV PR (Human immunodeficiency virus type 1 group M subtype B, UniProt P04585); experiment: HIV PR inhibition assay, wild type; assay type: biochemical
T1 construct: Recombinant wild type and mutant HIV PRs were expressed using pET21 vector (Novagen) in E. coli cells; made in house
Description: as §3, §4

[4] = system: WT=HIVHXB2; experiment: Antiviral assay in MT-4 cells (MTT), WT virus; assay type: cell-based, HIV; conditions: Human immunodeficiency virus 1, MT4, 120 h, HIVHXB2, 5 days
Description: as §1, §2

[5] = target: mutant HIV PR (Mutant 8) (Human immunodeficiency virus type 1 group M subtype B, UniProt P04585); experiment: HIV PR inhibition assay, Mutant 8; assay type: biochemical; conditions: read-out: Ki Mutant 8; recombinant mutant HIV PR, fluorogenic substrate, pH 6.5
Description: as §3, §4

[6] = system: HIVmutant8 (14 mutations); experiment: Antiviral assay in MT-4 cells (MTT), mutant 8 virus; assay type: cell-based, HIV; conditions: Human immunodeficiency virus 1, MT4, 120 h, read-out: IC50 Mutant 8
Description: as §1, §2

[7] = system: HIVmutant10 (16 mutations); experiment: Antiviral assay in MT-4 cells (MTT), mutant 10 virus; assay type: cell-based, HIV; conditions: Human immunodeficiency virus 1, MT4, 120 h, read-out: IC50 Mutant 10
Description: as §1, §2

[8] = target: mutant HIV PR (Mutant 10) (Human immunodeficiency virus type 1 group M subtype B, UniProt P04585); experiment: HIV PR inhibition assay, Mutant 10; assay type: biochemical; conditions: read-out: Ki Mutant 10; recombinant mutant HIV PR, fluorogenic substrate, pH 6.5
Description: as §3, §4

SMILES | IC50 [1] | Ki [2] | Ki [3] | IC50 [4] | Ki [5] | IC50 [6] | IC50 [7] | Ki [8]
CC(C)CN(CC(O)C(Cc1ccccc1)NC(=O)OC1COC2OCCC12)S(=O)(=O)c1ccc2c(c1)C(=CNCC1CCCCC1)C(=O)N2 (stereo not drawn) [Compound 72, [1-Benzyl-3-({3-[(cyclohexylmethyl-amino)-methylene]-2-oxo-2,3-dihydro-1H-indole-5-sulfonyl}-isobutyl-amino)-2-hydroxy-propyl]-carbamic acid hexahydro-furo[2,3-b]furan-3-yl ester] | 9 nM | < 0.1 nM | < 0.1 nM | 9.7 nM | < 0.3 nM | 27 nM | 40 nM | < 1 nM
CC(C)CN(CC(O)C(Cc1ccccc1)NC(=O)OC1COC2OCCC12)S(=O)(=O)c1ccc2c(c1)C(=CNCCc1ccccn1)C(=O)N2 (stereo not drawn) [Compound 76, [1-Benzyl-2-hydroxy-3-(isobutyl-{2-oxo-3-[(2-pyridin-2-yl-ethylamino)-methylene]-2,3-dihydro-1H-indole-5-sulfonyl}-amino)-propyl]-carbamic acid hexahydro-furo[2,3-b]furan-3-yl ester] | 35 nM | < 0.1 nM | < 0.1 nM | 33 nM | < 0.3 nM | 61 nM | 28 nM | < 1 nM
CC(C)CN(CC(O)C(Cc1ccccc1)NC(=O)OC1COC2OCCC12)S(=O)(=O)c1ccc2c(c1)C(=CNCCCCc1ccccc1)C(=O)N2 (stereo not drawn) [Compound 78, [1-Benzyl-2-hydroxy-3-(isobutyl-{2-oxo-3-[(4-phenyl-butylamino)-methylene]-2,3-dihydro-1H-indole-5-sulfonyl}-amino)-propyl]-carbamic acid hexahydro-furo[2,3-b]furan-3-yl ester] | 17 nM | < 0.1 nM | < 0.1 nM | 11 nM | < 0.3 nM | 55 nM | 105 nM | < 1 nM
CC(C)CN(CC(O)C(Cc1ccccc1)NC(=O)OC1COC2OCCC12)S(=O)(=O)c1ccc2c(c1)C(=CNCC1CC1)C(=O)N2 (stereo not drawn) [Compound 101] | 22 nM | 0.19 nM | 0.11 nM | 20 nM | < 0.3 nM | 31 nM | 55 nM | < 1 nM
CC(C)CC(C)NC=C1C(=O)Nc2ccc(S(=O)(=O)N(CC(C)C)CC(O)C(Cc3ccccc3)NC(=O)OC3COC4OCCC34)cc21 (stereo not drawn) [Compound 104] | 16 nM | 0.25 nM | 0.17 nM | 7 nM | < 0.3 nM | 33 nM | 74 nM | 1.3 nM
CCCN(C=C1C(=O)Nc2ccc(S(=O)(=O)N(CC(C)C)CC(O)C(Cc3ccccc3)NC(=O)OC3COC4OCCC34)cc21)CC (stereo not drawn) [Compound 106] | 20 nM | < 0.1 nM | < 0.1 nM | 21 nM | < 0.3 nM | 30 nM | 60 nM | < 1 nM
CC(C)CN(CC(O)C(Cc1ccccc1)NC(=O)OC1COC2OCCC12)S(=O)(=O)c1ccc2c(c1)C(=CNC1CCCCC1)C(=O)N2 (stereo not drawn) [Compound 107] | 28 nM | 0.21 nM | < 0.1 nM | 13 nM | < 0.3 nM | 39 nM | 110 nM | 1.2 nM
CCCC(C)NC=C1C(=O)Nc2ccc(S(=O)(=O)N(CC(C)C)CC(O)C(Cc3ccccc3)NC(=O)OC3COC4OCCC34)cc21 (stereo not drawn) [Compound 108] | 15 nM | < 0.1 nM | < 0.1 nM | 9 nM | < 0.3 nM | 35 nM | 80 nM | < 1 nM
CCc1cccc(NC=C2C(=O)Nc3ccc(S(=O)(=O)N(CC(C)C)CC(O)C(Cc4ccccc4)NC(=O)OC4COC5OCCC45)cc32)n1 (stereo not drawn) [Compound 112] | 30 nM | 0.17 nM | < 0.1 nM | 7 nM | < 0.3 nM | 50 nM | 200 nM | 6.4 nM
CC(C)CN(C=C1C(=O)Nc2ccc(S(=O)(=O)N(CC(C)C)CC(O)C(Cc3ccccc3)NC(=O)OC3COC4OCCC34)cc21)CC(C)C (stereo not drawn) [Compound 113] | 23 nM | 0.21 nM | < 0.1 nM | 8 nM | < 0.3 nM | 34 nM | 90 nM | 2.9 nM
CC(C)CN(CC(O)C(Cc1ccccc1)NC(=O)OC1COC2OCCC12)S(=O)(=O)c1ccc2c(c1)C(=CNC1CCC1)C(=O)N2 (stereo not drawn) [Compound 114] | 31 nM | 0.15 nM | < 0.1 nM | 17 nM | < 0.3 nM | 30 nM | 115 nM | 1.2 nM
C=CCN(C=C1C(=O)Nc2ccc(S(=O)(=O)N(CC(C)C)CC(O)C(Cc3ccccc3)NC(=O)OC3COC4OCCC34)cc21)C1CCCC1 (stereo not drawn) [Compound 116] | 20 nM | < 0.1 nM | < 0.1 nM | 15 nM | < 0.3 nM | 50 nM | 150 nM | < 1 nM
CCCCN(C=C1C(=O)Nc2ccc(S(=O)(=O)N(CC(C)C)CC(O)C(Cc3ccccc3)NC(=O)OC3COC4OCCC34)cc21)CC (stereo not drawn) [Compound 118] | 15 nM | < 0.1 nM | < 0.1 nM | 13 nM | < 0.3 nM | 40 nM | 60 nM | 1.9 nM
CC(C)CN(CC(O)C(Cc1ccccc1)NC(=O)OC1COC2OCCC12)S(=O)(=O)c1ccc2c(c1)C(=CNCC(F)(F)C(F)(F)C(F)(F)F)C(=O)N2 (stereo not drawn) [Compound 125] | 24 nM | 0.17 nM | < 0.1 nM | 14 nM | < 0.3 nM | 37 nM | 39 nM | 1.2 nM
CCOC(=O)C(NC=C1C(=O)Nc2ccc(S(=O)(=O)N(CC(C)C)CC(O)C(Cc3ccccc3)NC(=O)OC3COC4OCCC34)cc21)C(C)C (stereo not drawn) [Compound 133] | 16 nM | 0.4 nM | 0.14 nM | 17 nM | < 0.3 nM | 19 nM | 27 nM | 3.1 nM
